The values that follow come from patent US20250282736A1, “SMALL MOLECULE MODULATORS OF HUMAN PREGNANE X RECEPTOR” (ST. JUDE CHILDREN'S RESEARCH HOSPITAL, priority 2022, published 2025).

The target in data set [1] is T1, hPXR (Homo sapiens (Human), UniProt O75469). Briefly: cell-based hPXR antagonistic assay. The conditions noted are these: for inhibition at 10 µM: read-out: Antagonist (% inhibition at 10 μM).
Data set [2] deals with T1, hPXR. Briefly: hPXR binding assay. The following applies: for inhibition at 10 µM: read-out: Binding (% inhibition at 10 μM).
The target of data set [3] is T1, hPXR. Kind of data set: cell-based hPXR agonistic assay. The conditions noted are these: for Agonist (% activation at 10 μM): rifampicin at 10 μM as 100% activation, DMSO (0.3%) as 0%.
In data set [4] the target is T1, hPXR. Briefly: cell-based hPXR inverse agonistic assay. The following applies: for inhibition at 10 µM: read-out: Inverse agonist (% inhibition at 10 μM).
Setting [5] is: read-out: Binding (IC50/μM), hPXR binding assay.

As usually defined, the inhibition is the drop in the measured response relative to a control, in per cent.

Read-outs that look alike come from different tables or passages of the source. A value given as a limit tells only on which side of the number the result lay.

T1 sequence (O75469 whole entry): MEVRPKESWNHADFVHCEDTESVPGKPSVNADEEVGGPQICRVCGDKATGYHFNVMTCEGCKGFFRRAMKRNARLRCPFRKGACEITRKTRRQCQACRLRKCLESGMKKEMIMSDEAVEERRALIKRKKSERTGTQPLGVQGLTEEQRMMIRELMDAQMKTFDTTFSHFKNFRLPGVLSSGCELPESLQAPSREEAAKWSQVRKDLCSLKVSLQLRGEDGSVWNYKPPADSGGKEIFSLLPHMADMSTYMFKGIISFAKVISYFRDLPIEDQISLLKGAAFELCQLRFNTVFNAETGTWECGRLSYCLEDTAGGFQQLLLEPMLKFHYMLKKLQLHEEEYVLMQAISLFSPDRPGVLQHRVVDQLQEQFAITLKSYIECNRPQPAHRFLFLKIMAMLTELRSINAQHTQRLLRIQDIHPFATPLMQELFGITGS

Consider `CCC[C@H](CC)Oc1ccc(C(C)(C)C)cc1NC(=O)c1nnn(-c2cc(OC)ccc2OC)c1C` [M1, (S)—N-(5-(Tert-Butyl)-2-(Hexan-3-yloxy)Phenyl)-1-(2,5-Dimethoxyphenyl)-5-Methyl-1H-1,2,3-Triazole-4-Carboxamide], for which the IC50 in data set [1] was 0.0069 ± 0.0005 µM; in data set [2] (setting [5]), 0.015 ± 0.003 µM; in data set [4] it was 0.0011 ± 0.0005 µM. In addition, the inhibition at 10 µM in data set [1] amounted to 105%; in data set [2], 93%; in data set [4], 165%. The compound also had an EC50 in data set [3] greater than 30 µM.

For `CCCCNc1cc(NC(=O)c2nnn(-c3cc(C)ccc3OC)c2C)cc(C(C)(C)C)c1` [G6], the IC50 in data set [1] is 0.15 µM; in data set [2] (setting [5]), 0.25 µM; in data set [4], 0.044 ± 0.014 µM. Also, the inhibition at 10 µM in data set [1] came to 104%; in data set [2], 87%; in data set [4], 79%. In data set [3], this compound came in with an EC50 greater than 30 µM.

In the case of `COc1ccc(OC)c(-n2nnc(C(=O)Nc3cc(NCC(=O)O)cc(C(C)(C)C)c3)c2C)c1` [D9], the IC50 in data set [1] amounted to 17.3 ± 1.39 µM; in data set [2] (setting [5]) it was 3.53 ± 0.58 µM; in data set [4], 1.7 µM. The inhibition at 10 µM in data set [1] amounted to 65%; in data set [2], 61%; in data set [4] it was 107%. In data set [3], the EC50 was greater than 30 µM.

Consider `COc1ccc(OC)c(-n2nnc(C(=O)Nc3cc(NCCN)cc(C(C)(C)C)c3)c2C)c1` [D10], for which the IC50 is 11.9 ± 2.27 µM in data set [1], greater than 30 µM in data set [2] and 7.09 ± 1.37 µM in data set [4]. Besides, the inhibition at 10 µM came out at 104% in data set [1] and 130% in data set [4]. Further, in data set [3], the EC50 was greater than 30 µM.

Take `COc1ccc(OC)c(-n2nnc(C(=O)Nc3cc(C(C)(C)C)ccc3O)c2C)c1` [B2, N-(5-(tert-butyl)-2-hydroxyphenyl)-1-(2,5-dimethoxyphenyl)-5-methyl-1H-1,2,3-triazole-4-carboxamide]: the IC50 in data set [1] is greater than 30 µM; in data set [2] (setting [5]), 2.33 ± 0.43 µM; in data set [4], greater than 30 µM. Also, the inhibition at 10 µM in data set [2] is 84%. This compound showed an EC50 in data set [3] greater than 30 µM.

`CCC[C@H](CC)Oc1ccc(C(C)(C)C)cc1NC(=O)c1nnn(-c2cc(OC)c(OC)cc2OC)c1C` [M9, (S)—N-(5-(Tert-Butyl)-2-(Hexan-3-yloxy)Phenyl)-5-Methyl-1-(2,4,5-Trimethoxyphenyl)-1H-1,2,3-Triazole-4-Carboxamide]: the IC50 in data set [1] was 0.12 ± 0.01 µM; in data set [2] (setting [5]) it was 0.0078 ± 0.0001 µM; in data set [4], greater than 30 µM. The figures for the inhibition at 10 µM in data set [1] and in data set [2] were 32% and 91%, respectively. In addition, in data set [3], the EC50 is 0.013 ± 0.01 µM. In data set [3], the “Agonist (% activation at 10 μM)” value is on record as “(69 ± 4)%”.

As for `CCC[C@H](CC)Oc1ccc(C(C)(C)C)cc1NC(=O)c1nnn(-c2cc(C)c(OC)cc2OC)c1C` [M11, (S)—N-(5-(Tert-Butyl)-2-(Hexan-3-yloxy)Phenyl)-1-(2,4-Dimethoxy-5-Methylphenyl)-5-Methyl-1H-1,2,3-Triazole-4-Carboxamide], in data set [1], the IC50 was determined as 65 ± 28 µM and the inhibition at 10 µM came to 15%. Further, in data set [2], the IC50 was 0.045 ± 0.013 µM and the inhibition at 10 µM is 94%. Also, in data set [3], the EC50 was determined as 0.0066 ± 0.0002 µM and the “Agonist (% activation at 10 μM)” value is given as “(92 ± 8)%”. The same compound had an IC50 in data set [4] greater than 30 µM.

Regarding `COc1ccc(OC)c(-n2nnc(C(=O)Nc3cccc(C)c3)c2C)c1` [A3], the IC50 in data set [1] was greater than 30 µM; in data set [2] (setting [5]), 10.9 ± 0.4 µM; in data set [4], greater than 30 µM. Besides, the inhibition at 10 µM in data set [2] turned out to be 52%. In data set [3], the “Agonist (% activation at 10 μM)” value is reported as “(30 ± 3)%”. In data set [3] (read-out: Agonist (EC50/μM), cell-based hPXR agonistic assay), the EC50 came out at 3.51 ± 0.86 µM.

Regarding `COc1ccc(OC)c(-n2nnc(C(=O)Sc3ccc(NC(C)=O)cc3)c2C)c1` [K2], the IC50 is greater than 30 µM in data set [1], 8.47 ± 0.78 µM in data set [2] (setting [5]) and greater than 30 µM in data set [4]. In addition, the inhibition at 10 µM in data set [2] was determined as 38%. In data set [3], this compound registered an EC50 greater than 30 µM.

Regarding `COc1ccc(OC)c(-n2nnc(C(=O)Nc3cc(C(C)(C)C)ccc3OCCCCN3CCN(C)CC3)c2C)c1` [B22, N-(5-(tert-butyl)-2-(4-(4-methylpiperazin-1-yl)butoxy)phenyl)-1-(2,5-dimethoxyphenyl)-5-methyl-1H-1,2,3-triazole-4-carboxamide], the values for the IC50 in data set [1], in data set [2] and in data set [4] were 6.09 ± 0.85 µM, greater than 30 µM and 3.08 ± 0.55 µM, respectively. Moreover, the results for the inhibition at 10 µM in data set [1] and in data set [4] were 114% and 168%, respectively. Besides, in data set [3], the EC50 was greater than 30 µM.

Take `COc1ccc(OC)c(-n2nnc(C(=O)Nc3cc(-n4cnc(C)c4)cc(C(F)(F)F)c3)c2C)c1` [A20]: the IC50 in data set [1], in data set [2] and in data set [4] was greater than 30 µM in each case. The same compound yielded an EC50 in data set [3] greater than 30 µM.

As for `CCC[C@H](CC)Oc1ccc(C(C)(C)C)cc1NC(=O)c1nnn(-c2cc(Cl)c(Cl)cc2OC)c1C` [M12, (S)—N-(5-(Tert-Butyl)-2-(Hexan-3-yloxy)Phenyl)-1-(4,5-Dichloro-2-Methoxyphenyl)-5-Methyl-1H-1,2,3-Triazole-4-Carboxamide], the IC50 came out at 0.32 ± 0.02 µM in data set [1], 0.23 ± 0.1 µM in data set [2] (setting [5]) and 0.065 ± 0.039 µM in data set [4]. The results for the inhibition at 10 µM in data set [1], in data set [2] and in data set [4] were 99%, 90% and 97%, respectively. Besides, the EC50 in data set [3] is greater than 30 µM.

As to `CCC(C)Oc1ccc(C(C)(C)C)cc1NC(=O)c1nnn(-c2cc(Cl)ccc2OC)c1C` (stereo not drawn) [F10], the IC50 in data set [1] was 0.019 µM; in data set [2] (setting [5]) it was 0.0076 ± 0.0011 µM; in data set [4], greater than 30 µM. For the same compound, the inhibition at 10 µM in data set [1] was determined as 79%; in data set [2], 90%. The EC50 in data set [3] is 0.36 ± 0.16 µM. In addition, the “Agonist (% activation at 10 μM)” value in data set [3] is “(9 ± 1)%”.

For `COc1ccc(C)cc1-n1nnc(C(=O)Nc2cc(N)cc(C(C)(C)C)c2)c1C` [G5, N-(3-amino-5-(tert-butyl)phenyl)-1-(2-methoxy-5-methylphenyl)-5-methyl-1H-1,2,3-triazole-4-carboxamide], the IC50 in data set [1] is 7.05 ± 3.48 µM; in data set [2] (setting [5]) it was 5.62 ± 0.49 µM; in data set [4], 18.9 ± 3.74 µM. In addition, the results for the inhibition at 10 µM in data set [1], in data set [2] and in data set [4] were 79%, 57% and 47%, respectively. The compound further gave an EC50 in data set [3] greater than 30 µM.

In the case of `COc1cc(NC(=O)c2nnn(-c3cc(Cl)ccc3OC)c2C)cc(C(C)(C)C)c1` [F5], the IC50 in data set [1] amounted to 0.48 ± 0.14 µM; in data set [2] (setting [5]), 0.14 µM; in data set [4] it was 0.18 µM. For the same compound, the inhibition at 10 µM turned out to be 103% in data set [1], 40% in data set [2] and 80% in data set [4]. The EC50 in data set [3] was greater than 30 µM.

In the case of `COc1ccc(OC)c(-n2nnc(C(=O)Nc3cc(OCCCCCCCC=O)cc(C(C)(C)C)c3)c2C)c1` [D26], the IC50 in data set [1] was determined as 1.28 ± 0.28 µM; in data set [2] (setting [5]) it was 1.13 ± 0.36 µM; in data set [4], 0.24 µM. The inhibition at 10 µM in data set [1] worked out at 189%; in data set [2], 77%; in data set [4] it was 111%. The compound also registered an EC50 in data set [3] greater than 30 µM.

On to `COc1ccc(OC)c(-n2nnc(NC(=O)Nc3cccc(C(C)(C)C)c3)c2C)c1` [K4], for which the IC50 in data set [1] is greater than 30 µM; in data set [2] (setting [5]), 0.39 ± 0.19 µM; in data set [4] it was greater than 30 µM. For the same compound, the inhibition at 10 µM in data set [2] is 24%. Besides, the EC50 in data set [3] stood at 1.45 ± 0.25 µM. For the same compound, the “Agonist (% activation at 10 μM)” value in data set [3] is on record as “(103 ± 5)%”.

As to `COc1ccc(OC)c(-n2nnc(S(=O)(=O)Nc3cccc(C(C)(C)C)c3)c2C)c1` [K6, N-(3-(tert-butyl)phenyl)-1-(2,5-dimethoxyphenvl)-5-methyl-1H-1,2,3-triazole-4-sulfonamide], the IC50 in data set [1] is greater than 30 µM; in data set [2] (setting [5]), 0.0147 ± 0.0026 µM; in data set [4], greater than 30 µM. For the same compound, the inhibition at 10 µM in data set [2] amounted to 97%. This compound had an EC50 in data set [3] of 0.021 µM. In addition, the “Agonist (% activation at 10 μM)” value in data set [3] is reported as “(136 ± 26)%”.

Regarding `COc1ccc(OC)c(-n2nnc(C(=O)Nc3ccccc3)c2C)c1` [A1, 1-(2,5-dimethoxyphenyl)-5-methyl-N-phenyl-1H-1,2,3-triazole-4-carboxamide], the IC50 in data set [1], in data set [2] and in data set [4] was greater than 30 µM in each case. Moreover, the EC50 in data set [3] stood at 24.5 ± 4.76 µM. For the same compound, the “Agonist (% activation at 10 μM)” value in data set [3] is given as “(33 ± 2)%”.

On to `COc1ccc(Cl)cc1-n1nnc(C(=O)Nc2cc(O)cc(C(C)(C)C)c2)c1C` [F4], for which the figures for the IC50 in data set [1], in data set [2] (setting [5]) and in data set [4] were 1.18 ± 0.21 µM, 1.64 µM and 0.29 ± 0.18 µM, respectively. In addition, the inhibition at 10 µM in data set [1] is 104%; in data set [2], 84%; in data set [4], 101%. In data set [3], this compound displayed an EC50 greater than 30 µM.

Take `COc1ccc(OC)c(-n2nnc(C(=O)Nc3cc(OCCCCCCCCCl)cc(C(C)(C)C)c3)c2C)c1` [D24]: the IC50 was found to be 2.69 ± 0.93 µM in data set [1], 0.57 µM in data set [2] (setting [5]) and 1.07 ± 0.43 µM in data set [4]. Besides, the values for the inhibition at 10 µM in data set [1], in data set [2] and in data set [4] were 46%, 58% and 53%, respectively. Besides, in data set [3], the EC50 was greater than 30 µM.

Take `CNc1cc(NC(=O)c2nnn(-c3cc(OC)ccc3OC)c2C)cc(C(C)(C)C)c1` [D2, N-(3-(tert-butyl)-5-(methylamino)phenyl)-1-(2,5-dimethoxyphenyl)-5-methyl-1H-1,2,3-triazole-4-carboxamide]: the “Antagonist (% inhibition at 10 μM)” value in data set [1] (at 10 μM, SPA70 at 10 μM with rifampicin (5 μM) as 100% inhibition, rifampicin alone (5 μM) as 0%) is reported as “(109 ± 6)%”. Besides, the IC50 in data set [1] (read-out: Antagonist (IC50/μM), cell-based hPXR antagonistic assay with rifampicin (5 μM)) was 0.41 ± 0.13 µM; in data set [2] (setting [5]), 0.33 ± 0.11 µM; in data set [4] (read-out: Inverse agonist (IC50/μM), cell-based hPXR inverse agonistic assay), 0.12 µM. In data set [3], this compound showed an EC50 greater than 30 µM.
